The values below come from US6541195B2, “Correction of genetic defects using chemical chaperones” (The Regents of the University of California, priority 1996, dated 2003).

The target of data set [1] is conversion of PrP^C to PrP^Sc (Mus musculus, UniProt P04925). Type of data set: cell-based. Conditions: for reduction of the amount of detergent insoluble PrP: 100 mM.
The target of data set [2] is T1, ΔF508 CFTR (Homo sapiens, UniProt P13569, DEL508-508).
T1 construct: expressed in transfected cells
T1 sequence (P13569 with tags, fused parts or gaps DEL508-508): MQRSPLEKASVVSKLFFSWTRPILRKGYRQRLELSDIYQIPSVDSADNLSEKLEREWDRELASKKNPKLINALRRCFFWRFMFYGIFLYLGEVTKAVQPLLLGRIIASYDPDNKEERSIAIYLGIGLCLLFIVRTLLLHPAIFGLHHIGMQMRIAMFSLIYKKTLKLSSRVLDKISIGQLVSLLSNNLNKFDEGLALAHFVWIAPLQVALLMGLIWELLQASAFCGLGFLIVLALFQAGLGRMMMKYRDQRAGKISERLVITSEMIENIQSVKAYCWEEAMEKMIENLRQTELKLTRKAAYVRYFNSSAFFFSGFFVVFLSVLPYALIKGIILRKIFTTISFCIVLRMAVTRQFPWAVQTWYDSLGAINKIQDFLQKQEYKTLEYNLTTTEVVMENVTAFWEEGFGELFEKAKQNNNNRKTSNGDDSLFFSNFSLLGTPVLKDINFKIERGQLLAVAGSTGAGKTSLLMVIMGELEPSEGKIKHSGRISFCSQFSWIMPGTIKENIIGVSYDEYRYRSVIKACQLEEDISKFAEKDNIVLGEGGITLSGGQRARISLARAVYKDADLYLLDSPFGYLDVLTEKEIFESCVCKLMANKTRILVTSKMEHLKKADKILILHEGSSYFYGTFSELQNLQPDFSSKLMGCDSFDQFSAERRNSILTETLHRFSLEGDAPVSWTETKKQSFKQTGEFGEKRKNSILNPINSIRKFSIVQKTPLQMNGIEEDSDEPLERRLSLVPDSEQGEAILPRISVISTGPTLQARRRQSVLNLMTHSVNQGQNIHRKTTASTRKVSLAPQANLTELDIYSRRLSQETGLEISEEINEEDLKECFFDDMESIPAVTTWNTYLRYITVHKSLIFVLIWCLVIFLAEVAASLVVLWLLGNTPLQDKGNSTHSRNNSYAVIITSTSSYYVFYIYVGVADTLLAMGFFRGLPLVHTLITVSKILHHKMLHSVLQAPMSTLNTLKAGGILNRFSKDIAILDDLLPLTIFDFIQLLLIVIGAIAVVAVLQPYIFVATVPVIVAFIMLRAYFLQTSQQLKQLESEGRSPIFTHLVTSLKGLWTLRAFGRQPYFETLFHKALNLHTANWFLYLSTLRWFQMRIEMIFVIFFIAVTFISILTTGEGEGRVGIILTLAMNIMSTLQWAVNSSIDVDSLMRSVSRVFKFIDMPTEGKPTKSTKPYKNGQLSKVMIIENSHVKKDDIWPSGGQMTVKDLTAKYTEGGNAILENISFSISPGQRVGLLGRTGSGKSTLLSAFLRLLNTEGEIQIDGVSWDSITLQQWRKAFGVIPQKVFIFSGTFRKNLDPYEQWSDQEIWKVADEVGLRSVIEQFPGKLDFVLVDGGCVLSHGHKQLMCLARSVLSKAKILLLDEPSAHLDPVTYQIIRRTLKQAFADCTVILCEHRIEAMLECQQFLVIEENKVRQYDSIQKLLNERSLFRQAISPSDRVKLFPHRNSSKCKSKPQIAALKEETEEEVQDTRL
The data set is described as follows: Western blotting of ΔF508 CFTR processing and maturation in transfected NIH 3T3 cells. Type of data set: cell-based. As for the experimental part: The effect of glycerol was measured by detecting either (1) the maturation of immature core-glycosylated endoplasmic reticulum forms of the ΔF508 CFTR to mature terminally glycosylated forms, or (2) the presence of forskolin-dependent chloride transport.
Western blotting using a commercially available anti-CFTR monoclonal antibody (panel 1A) or our polyclonal anti-CFTR antibody (Panel 1B) was performed using cell lysates from NIH 3T3 cells transfected with either the wild type or ΔF508 forms of CFTR. Andersen, M. P. et al., Science, 253:202 (1991). Both the polyclonal and monoclonal antibodies recognized the 140 kDa (core glycosylated, or B form) and 160 kDa (fully glycosylated, C form) forms of CFTR in lysates from wild type CFTR expressing cells. In contrast, only the 140 kDa core glycosylated CFTR was detected by the two antibodies in the lysates from cells transfected with the ΔF508 CFTR mutant.
In panel 1C, cells expressing the ΔF508 mutant were examined by Western blotting using the rabbit polyclonal antibody following their treatment at 37° C. with 1 M glycerol for 3 days. As a positive control, the ΔF508 CFTR expressing cells were incubated at 26° C. for 3 days.
The results of experiments to determine the optimal concentration of glycerol and the duration of glycerol treatment needed to elicit the highest levels of mutant ΔF508 CFTR maturation are summarized in FIG. 2. In panel 2A, cells expressing ΔF508 CFTR were incubated at 37° C. for 3 days in culture medium containing various concentrations of glycerol. The cells were harvested and then analyzed by Western blotting using the rabbit polyclonal anti-CFTR antibody. In panel 2B, cells expressing ΔF508 CFTR were incubated with 1.25 M glycerol at 37° C. for 1, 2 or 3 days and then analyzed by Western blotting as described in A. Glycerol concentrations of 1-1.25 M gave the maximal amount of mutant protein which was properly processed.
In Panel A of FIG. 22, 3T3 cells expressing the ΔF508 CFTR protein (via stable transfection) were treated with either 100 or 200 mM of the specified cellular osmolytes for 2 days. Cells were then lysed and examined by Western blot analysis. Wt represents cells expressing the wild type CFTR protein. B, G, T, S and M indicated cells treated with betaine, glucose, taurine, sorbitol and myoinositol, respectively.
In Panel A, cells expressing ΔF508 CFTR were incubated in the presence or absence of varying concentrations (25, 50, 100 mM) of osmolyte. After 2 days of growth, the cells were harvested and analyzed for their content of immature (band B) and mature (band C) forms of the CFTR protein by Western blotting. Cells expressing wild type CFTR (wt) were included as a positive control. In Panel B, cells expressing ΔF508 CFTR were incubated for 1 (1D), 2(2D) or 3 (3D) days in growth medium containing 150 mM of the indicated osmolyte. As a control, the same cells were incubated in normal growth medium. […] After 3 days of continuous treatment with 150 mM osmolyte there is see a “drop-off” of the amount of the C band.
A general note: In western blotting, separated proteins are transferred to a membrane and probed.

In data set [3] the target is T1, ΔF508 CFTR. Nature of the data set: Forskolin stimulated chloride transport, SPQ fluorescence assay. Type of data set: cell-based. Conditions: for forskolin dependent chloride efflux: 37° C. On the procedure:
(§1) Forskolin-sensitive chloride transport was measured by the fluorescence assays method (FIG. 3). Briefly, ΔF508-CFTR expressing cells were grown on glass coverslips at 37° C. in the absence or presence of 1.25 M glycerol for 3 days. These cells, along with cells expressing wild type CFTR, then were examined for forskolin stimulated chloride transport using SPQ fluorescence assays, as described in: Verkman, A. S., Am. J. Physiol., 259:C375 (1990); Verkman, A. S. et al., in Methods in Neurosciences, Kraicer, J. et al., Eds. (Academic Press, 1995) vol. 27, 328. Plasma membrane chloride efflux was measured from the time course of increase in SPQ fluorescence in response to replacement of intracellular chloride by nitrate. Cells in the presence or absence of a protein stabilizing agent were incubated with 2 mM SPQ for 12-18 hrs. prior to measurements. The rate of chloride efflux was measured before and after stimulation of cAMP with forskolin. The reaction was quenched by the addition of 150 mM KSCN.
(§2) The positive effect of glycerol treatment on chloride conductance was concentration and time dependent (FIG. 3B). ΔF508 CFTR-expressing cells growing on glass coverslips were incubated with various concentrations of glycerol for 3 days and then examined for forskolin stimulated chloride transport. Alternatively, cells were incubated with 1.25 M glycerol for varying times (1, 2 or 3 days) and then analyzed for chloride transport following stimulation by forskolin.
Powdered DMEM medium (Gibco) was reconstituted in 100% distilled water or in 100% […]. Cells transfected with ΔF508 CFTR or mock transfected cells were incubated in either the distilled water or the dH2O containing culture medium for two days at 37° C., and then analyzed for forskolin dependent chloride efflux.
Both mock transfected cells and the cells transfected with ΔF508 CFTR were incubated in regular DMEM culture medium containing 100 mM TMAO for two days at 37° C. and then analyzed for forskolin dependent chloride efflux.
In contrast, cells treated with 4 different osmolytes now show partial chloride transport (note however that it never reaches the wild type levels, rather only about 10-30% of wild type).

Another data set deals with T2, wild type CFTR protein (Homo sapiens, UniProt P13569).
T2 construct: expressed in transfected cells; host or cells: NIH 3T3 fibroblasts
T2 sequence (P13569 whole entry): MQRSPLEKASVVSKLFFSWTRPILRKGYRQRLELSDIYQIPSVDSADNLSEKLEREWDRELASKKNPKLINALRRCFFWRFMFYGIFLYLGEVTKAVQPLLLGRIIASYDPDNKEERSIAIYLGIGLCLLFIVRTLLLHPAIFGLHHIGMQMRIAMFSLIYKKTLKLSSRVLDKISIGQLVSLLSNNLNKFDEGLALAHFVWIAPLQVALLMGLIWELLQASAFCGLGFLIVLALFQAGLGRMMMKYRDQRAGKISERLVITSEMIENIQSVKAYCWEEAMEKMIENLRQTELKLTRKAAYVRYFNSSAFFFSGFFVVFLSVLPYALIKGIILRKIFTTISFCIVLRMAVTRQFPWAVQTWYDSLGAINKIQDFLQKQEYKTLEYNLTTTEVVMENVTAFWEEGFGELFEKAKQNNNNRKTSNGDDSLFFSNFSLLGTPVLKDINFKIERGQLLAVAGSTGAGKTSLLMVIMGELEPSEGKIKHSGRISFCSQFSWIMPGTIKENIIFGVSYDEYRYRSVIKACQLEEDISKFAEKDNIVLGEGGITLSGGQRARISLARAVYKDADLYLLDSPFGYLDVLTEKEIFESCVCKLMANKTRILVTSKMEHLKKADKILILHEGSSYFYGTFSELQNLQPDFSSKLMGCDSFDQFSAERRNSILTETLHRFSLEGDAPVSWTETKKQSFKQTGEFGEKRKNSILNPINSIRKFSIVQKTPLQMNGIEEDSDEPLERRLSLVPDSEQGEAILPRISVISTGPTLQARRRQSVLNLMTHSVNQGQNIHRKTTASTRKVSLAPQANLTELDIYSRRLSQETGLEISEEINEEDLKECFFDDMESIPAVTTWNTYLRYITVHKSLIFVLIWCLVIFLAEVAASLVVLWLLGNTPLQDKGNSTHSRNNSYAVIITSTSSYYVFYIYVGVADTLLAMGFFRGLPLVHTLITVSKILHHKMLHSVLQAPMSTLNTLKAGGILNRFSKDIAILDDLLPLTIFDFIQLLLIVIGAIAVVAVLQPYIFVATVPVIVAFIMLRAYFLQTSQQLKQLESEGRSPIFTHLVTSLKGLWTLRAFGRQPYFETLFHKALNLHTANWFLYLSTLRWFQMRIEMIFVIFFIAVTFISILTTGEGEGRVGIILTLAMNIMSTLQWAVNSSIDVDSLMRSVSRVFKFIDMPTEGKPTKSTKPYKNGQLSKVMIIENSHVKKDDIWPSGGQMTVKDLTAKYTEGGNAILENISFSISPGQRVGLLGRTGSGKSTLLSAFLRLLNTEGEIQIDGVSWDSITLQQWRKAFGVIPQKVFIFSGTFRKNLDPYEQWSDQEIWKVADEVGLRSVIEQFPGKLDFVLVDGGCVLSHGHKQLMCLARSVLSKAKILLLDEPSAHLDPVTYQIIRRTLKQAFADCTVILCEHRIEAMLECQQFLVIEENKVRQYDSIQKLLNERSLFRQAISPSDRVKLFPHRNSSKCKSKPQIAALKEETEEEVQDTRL
The data set is described as follows: Glycerol exposure of cells expressing wild type CFTR (Western blotting, chloride conductance). Type of data set: cell-based. Conditions: data not shown. As for the experimental part: as §1, with “Cells in the presence or absence of a protein stabilizing agent were incubated with 2 mM SPQ for 12-18 hrs. prior to measurements.” left out, “The reaction was quenched by the addition of 150 mM KSCN.” left out
as §2

Data set [4] deals with temperature sensitive (ts) mutant p53 protein (Mus musculus, UniProt P02340, A135V). The data set is described as follows: Intracellular localization of temperature sensitive p53 in A1-5 cells by indirect immunofluorescence. Conditions: 39.5° C., after 2 D treatment.
Sequence of temperature sensitive (ts) mutant p53 protein (P02340 whole entry A135V): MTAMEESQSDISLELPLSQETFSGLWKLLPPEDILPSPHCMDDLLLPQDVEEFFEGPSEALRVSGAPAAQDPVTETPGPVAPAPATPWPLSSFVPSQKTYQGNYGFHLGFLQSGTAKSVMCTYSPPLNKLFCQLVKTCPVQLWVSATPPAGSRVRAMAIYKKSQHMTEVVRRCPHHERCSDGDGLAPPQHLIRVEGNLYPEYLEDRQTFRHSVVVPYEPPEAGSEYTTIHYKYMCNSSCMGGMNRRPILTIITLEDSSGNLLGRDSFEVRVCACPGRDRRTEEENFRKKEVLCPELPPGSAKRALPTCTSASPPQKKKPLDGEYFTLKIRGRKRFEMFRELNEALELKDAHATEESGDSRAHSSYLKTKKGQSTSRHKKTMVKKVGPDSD
Data set [5] concerns temperature sensitive form of pp60^src. Type of data set: cell-based, Rous sarcoma virus. Conditions: 39.5° C.

Like-named read-outs stand apart in the source and are kept apart here.

Sequence of conversion of PrP^C to PrP^Sc (P04925 23-230 limits assumed): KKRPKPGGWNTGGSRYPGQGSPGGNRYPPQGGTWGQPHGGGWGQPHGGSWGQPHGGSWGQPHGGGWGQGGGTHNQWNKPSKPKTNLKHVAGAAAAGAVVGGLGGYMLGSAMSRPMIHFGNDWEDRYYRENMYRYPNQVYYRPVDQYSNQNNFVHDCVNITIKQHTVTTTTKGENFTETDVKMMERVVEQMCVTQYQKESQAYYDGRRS

In the case of `C[S+](C)[O-]` [DMSO, dimethylsulfoxide], in data set [1] (ScN2a cells), the “reduction of the amount of detergent insoluble PrP” value is reported as “over 50%”. The “concentration adversely affecting the morphology and growth rates of the cells” value with ScN2a cells (mouse) is not below 200 mM.
`OCC(O)CO` [glycerol]: the “mature ΔF508 CFTR protein by Western blotting” value on ΔF508 CFTR [2] (1 M glycerol, 37° C., 3 days) is on record as “significant amounts of the mature ΔF508 CFTR protein”. The “duration of treatment giving maximal amounts of fully glycosylated ΔF508 CFTR protein” value on ΔF508 CFTR [2] (1.25 M glycerol, 37° C.) is 3 days. The “glycerol concentration giving the maximal amount of properly processed mutant protein” value at ΔF508 CFTR [2] (37° C., 3 days) fell in the range of 1 to 1.25 M. The “effect of higher doses on fully glycosylated ΔF508 CFTR” value at ΔF508 CFTR [2] (doses higher than 1-1.25 M, 3 days) is given as “inhibitory”. Further, the “forskolin stimulated chloride transport” value at ΔF508 CFTR [3] (1.25 M glycerol, one day) is on record as “forskolin stimulated chloride transport was observed”. On ΔF508 CFTR [3] (3 days), the “concentration giving maximal rates of chloride efflux” value was 1.25 M and the “lowest concentration with increased chloride transport” value is 0.5 M. Moreover, the “effect on amount of mature wild type CFTR protein or forskolin dependent chloride conductance” value at wild type CFTR protein is recorded as “little or no effect”. Moreover, the “exogenously added MHM2 PrP in detergent fractions versus untreated ScN2a cells” value in data set [1] (1 M glycerol 24 hrs, 40 hrs with MHM2 brain extract, 3F4 antibody) was “reduce the levels of the MHM2 protein in both the detergent soluble and insoluble fractions”. Further, the “glycerol concentrations also giving significant reduction in conversion of PrP^C to PrP^Sc” value in data set [1] (3 days) was 0.25-0.5 M. Besides, the “most effective glycerol concentration for reducing detergent insoluble PrP” value in data set [1] (3 days, 0-1,000 mM tested) turned out to be 1 M. Moreover, the “overall levels of insoluble PrP versus non-glycerol treated cells” value in data set [1] (ScN2a cells, glycerol 24 hrs) is “marked reduction”. In data set [1] (glycerol 24 hrs, PIPLC 5 U/ml 4 hrs), the “PrP^C synthesis and movement of the newly synthesized protein to the plasma membrane (PIPLC release)” value is on record as “does not significantly affect”. Besides, the “overall extent of PrP^C to PrP^Sc conversion relative to untreated cells (pulse-chase)” value in data set [1] (glycerol 3 days, then 5 days without glycerol) was “marked reduction”. Besides, the “rate or overall extent of PrP^C synthesis (metabolic labeling)” value in data set [1] (presence versus absence of glycerol) is “no significant differences”. Moreover, the “p53 distribution one day following removal of the agent” value in data set [4] is given as “no longer displayed a nuclear p53 distribution”.
As for `[2H]O[2H]` [deuterated water], the “CFTR processing in ΔF508 CFTR-expressing cells” value at ΔF508 CFTR [2] (deuterated water) was “competent to induce CFTR processing”. Further, the “forskolin dependent chloride efflux” value at ΔF508 CFTR [3] (medium in 100% dH2O, two days) is “exhibited forskolin-dependent chloride transport”. For the same molecule, in data set [5], the “restoration of transformed phenotype / wild type pp60^src activity” value is on record as “much less effective”. Moreover, the “p53 distribution 2 days following removal of the agent” value in data set [4] is given as “all of p53 now was found within the cytoplasm”.
As for `C[N+](C)(C)[O-]` [TMAO, trimethylamine N-oxide], the “forskolin dependent chloride efflux” value at ΔF508 CFTR [3] (100 mM TMAO, 2 days) is recorded as “Forskolin dependent chloride transport was observed”. Besides, the “reduction of the amount of detergent insoluble PrP” value in data set [1] (ScN2a cells) was “over 50%”. For the same molecule, the “restoration of transformed phenotype / wild type pp60^src activity” value in data set [5] is “much less effective”. Further, in the data set on ScN2a cells, the “concentration adversely affecting the morphology and growth rates of the cells” value is on record as not below 200 mM. The “p53 distribution 2 days following removal of the agent” value in data set [4] is recorded as “all of p53 now was found within the cytoplasm”.
